Experimental findings from ChEMBL document CHEMBL1201862, “PubChem BioAssay data set” (2004) are described below.

The target in assay [1] is T1, Protein skinhead-1 (Caenorhabditis elegans, UniProt P34707).
T1 sequence (P34707 whole entry): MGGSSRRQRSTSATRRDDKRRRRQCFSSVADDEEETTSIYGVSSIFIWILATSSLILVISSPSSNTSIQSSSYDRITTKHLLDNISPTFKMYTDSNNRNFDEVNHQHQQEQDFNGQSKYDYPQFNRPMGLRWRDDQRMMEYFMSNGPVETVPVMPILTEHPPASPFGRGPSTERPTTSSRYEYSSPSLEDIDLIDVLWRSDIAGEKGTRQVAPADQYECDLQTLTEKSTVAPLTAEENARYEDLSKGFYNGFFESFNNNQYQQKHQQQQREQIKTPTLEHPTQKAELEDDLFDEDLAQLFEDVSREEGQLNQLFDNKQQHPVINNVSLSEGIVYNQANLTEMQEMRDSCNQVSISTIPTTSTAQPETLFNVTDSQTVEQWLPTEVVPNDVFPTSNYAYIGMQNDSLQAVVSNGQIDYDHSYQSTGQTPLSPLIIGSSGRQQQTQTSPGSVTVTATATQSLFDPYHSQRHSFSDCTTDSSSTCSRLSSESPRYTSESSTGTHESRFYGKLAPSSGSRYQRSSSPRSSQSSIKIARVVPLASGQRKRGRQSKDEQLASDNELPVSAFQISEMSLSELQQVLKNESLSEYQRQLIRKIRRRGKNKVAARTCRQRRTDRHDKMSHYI
Format: functional.

Assay [2] addresses T2, Heat shock factor protein 1 (Mus musculus, UniProt P38532).
T2 sequence (P38532 whole entry): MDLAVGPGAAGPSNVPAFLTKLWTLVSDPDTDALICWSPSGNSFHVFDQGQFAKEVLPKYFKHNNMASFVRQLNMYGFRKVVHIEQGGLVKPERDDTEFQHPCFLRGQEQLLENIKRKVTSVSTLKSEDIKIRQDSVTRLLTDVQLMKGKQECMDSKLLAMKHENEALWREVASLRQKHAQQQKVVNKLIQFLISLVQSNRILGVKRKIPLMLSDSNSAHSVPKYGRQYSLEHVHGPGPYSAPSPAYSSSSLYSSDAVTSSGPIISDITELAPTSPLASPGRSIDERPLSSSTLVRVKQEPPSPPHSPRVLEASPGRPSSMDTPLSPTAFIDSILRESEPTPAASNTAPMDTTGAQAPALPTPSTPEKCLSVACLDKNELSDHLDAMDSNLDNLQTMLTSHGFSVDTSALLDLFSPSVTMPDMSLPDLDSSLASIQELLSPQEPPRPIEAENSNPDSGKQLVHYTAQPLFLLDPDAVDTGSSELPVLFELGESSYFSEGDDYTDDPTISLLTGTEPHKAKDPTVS
Briefly: enhancement of HSF1-driven luciferase signal – cell-based, NIH3T3, luminescence, dose retest, confirmation (AID 435004).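 Note: stress induced by proteasome inhibitor MG132 added 30 min after compound; luciferase reporter driven by HSF1 response element in NIH3T3 cells; actives raise luminescence as potentiators of the MG132 stress response.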 It is filed as functional.

Assay [3] has as its target T3, Corticotropin-releasing factor receptor 2/Corticotropin-releasing factor-binding protein (Homo sapiens, UniProt P24387+Q13324).
T3 sequence (Q13324 whole entry): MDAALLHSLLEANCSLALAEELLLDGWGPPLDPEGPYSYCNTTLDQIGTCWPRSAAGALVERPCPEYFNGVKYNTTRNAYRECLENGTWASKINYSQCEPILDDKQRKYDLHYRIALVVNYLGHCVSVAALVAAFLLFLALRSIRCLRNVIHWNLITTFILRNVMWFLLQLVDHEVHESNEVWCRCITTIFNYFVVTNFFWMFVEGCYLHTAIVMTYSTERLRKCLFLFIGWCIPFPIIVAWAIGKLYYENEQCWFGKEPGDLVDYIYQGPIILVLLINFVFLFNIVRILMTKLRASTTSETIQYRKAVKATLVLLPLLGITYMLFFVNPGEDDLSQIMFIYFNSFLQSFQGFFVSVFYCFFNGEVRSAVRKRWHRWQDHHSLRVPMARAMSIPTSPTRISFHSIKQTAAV
T3 sequence (P24387 whole entry): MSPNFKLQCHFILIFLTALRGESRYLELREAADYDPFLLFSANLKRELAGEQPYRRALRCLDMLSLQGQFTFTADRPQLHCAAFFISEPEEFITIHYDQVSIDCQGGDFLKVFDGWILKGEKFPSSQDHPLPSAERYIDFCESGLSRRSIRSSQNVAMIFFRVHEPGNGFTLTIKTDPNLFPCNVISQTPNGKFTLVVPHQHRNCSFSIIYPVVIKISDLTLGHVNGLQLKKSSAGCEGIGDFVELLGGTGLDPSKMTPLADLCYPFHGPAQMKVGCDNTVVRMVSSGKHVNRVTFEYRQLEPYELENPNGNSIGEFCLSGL
As to the kind of experiment: activators of CRF receptor 2 with binding protein – uHTS hits, confirmation (AID 602473). Format: functional. The note with it: read-out: EC50_Mean.

In assay [4] the target is T3, Corticotropin-releasing factor receptor 2/Corticotropin-releasing factor-binding protein. Briefly: Dose Response confirmation of uHTS hits for small molecule antagonists of the CRF-binding protein and CRF-R2 receptor complex. Format: functional. The note with it: read-out: IC50_Mean.
Assay [5] has as its system H4. Briefly: Luminescence Cell-Based Dose Response HTS to Identify Activators of 5'UTR Stem-Loop Driven Prion Protein mRNA Translation in H4 Neuroglioblastoma Cells. [Related pubchem assays: 1829 (Project Summary), 1814 (Primary HTS)]. The conditions noted are these: Homo sapiens. It is filed as functional.
The nature of assay [6]: Luminescence Cell-Based Dose Response HTS to Identify Activators of Luciferase Translation or Activity in H4 […] Cells. [Related pubchem assays: 1829 (Project Summary), 1814 (Primary HTS)]. Format: functional.
The target in assay [7] is Large T antigen (Simian virus 40, UniProt P03070). It is filed as functional, Betapolyomavirus macacae.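 Note: Confirmatory-stage PubChem screen for compounds that inhibit SV40 T antigen.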
Sequence of Large T antigen (P03070 whole entry): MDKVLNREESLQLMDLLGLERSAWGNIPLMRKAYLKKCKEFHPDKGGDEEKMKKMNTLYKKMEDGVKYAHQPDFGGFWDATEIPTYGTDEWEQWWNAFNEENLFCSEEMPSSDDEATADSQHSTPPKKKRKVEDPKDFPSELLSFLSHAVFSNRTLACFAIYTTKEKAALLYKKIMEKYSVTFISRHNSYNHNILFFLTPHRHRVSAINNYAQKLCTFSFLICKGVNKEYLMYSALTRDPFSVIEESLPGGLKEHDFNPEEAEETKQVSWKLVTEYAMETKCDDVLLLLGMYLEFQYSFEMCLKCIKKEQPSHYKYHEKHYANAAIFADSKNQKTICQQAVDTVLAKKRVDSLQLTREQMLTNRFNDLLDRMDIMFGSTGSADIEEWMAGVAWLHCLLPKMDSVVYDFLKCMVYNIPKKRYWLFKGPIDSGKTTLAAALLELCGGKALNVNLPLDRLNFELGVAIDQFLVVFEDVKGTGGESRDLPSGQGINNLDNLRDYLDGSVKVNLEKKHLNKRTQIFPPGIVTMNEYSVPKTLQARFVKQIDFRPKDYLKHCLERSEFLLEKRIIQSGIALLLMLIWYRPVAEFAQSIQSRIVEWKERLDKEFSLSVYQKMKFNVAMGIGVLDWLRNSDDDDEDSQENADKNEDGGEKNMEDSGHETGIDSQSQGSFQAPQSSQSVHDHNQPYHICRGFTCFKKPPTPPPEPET
The nature of assay [8]: alpha-synuclein stem-loop luciferase translation blockers – H4 neuroglioma cells, luminescence, confirmation (AID 1988). Format: functional, cell-based.
Assay [9] is described as follows: luciferase reporter signal suppression in cells – H4 neuroglioma cells, luminescence, dose response (AID 1990). Format: functional, cell-based.
Assay [10] in a line: Luminescence Cell-Based Dose Response HTS to Identify Inhibitors of 5'UTR Stem-Loop Driven Prion Protein mRNA Translation in H4 Neuroglioblastoma Cells. [Related pubchem assays: 1827 (Project Summary), 1813 (Primary HTS)]. It is filed as functional.
A short description of assay [11]: NIH3T3 cell viability loss – ATP luminescence, mouse fibroblasts, counter-screen, dose response (AID 2010).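 Note: cells exposed to compound for about 90 hours before reading.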 Format: functional, cell-based.
A short description of assay [12]: Trypanosoma cruzi growth suppression in host cells – NIH3T3 host cells, beta-gal luminescence, confirmation (AID 2044).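 Note: intracellular parasites grown in NIH/3T3 mouse fibroblasts as host cells; luminescent beta-galactosidase reporter signal from transgenic T. cruzi replicating inside host cells; inhibitors lower the luminescence signal.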 It is filed as functional, cell-based.

Each structure is given as a SMILES string. Active and inactive are the calls of the source. Cut-off read from the data, not from the text of the source, for most assays here: actives have a measured EC50 and inactives only a lower limit.

As to `Fc1ccccc1OCCSc1nc2ccccc2o1`, in [1], the IC50 is 36.3 µM (active). With `O=c1oc2ccccc2c(NC2CCCCC2)c1NS(=O)(=O)c1ccc(Cl)cc1`, the EC50 in [2] is 120 µM (active).

For the compound `CCN(CC)S(=O)(=O)c1cc(OC)c(C)cc1C`, the EC50 in [3] was > 53 µM (inactive). In addition, in assay [4], the IC50 was > 47.1 µM (inactive). As to `COc1ccc(/C=N/OCC(=O)N=Nc2c(O)[nH]c3ccc(Br)cc23)cc1`, in [3], the EC50 was > 53 µM (inactive). In addition, the IC50 in assay [4] is 5.15 µM (active).

`O=c1/c(=C/c2ccccc2)sc2nnc(-c3cccs3)n12`: the EC50 in [2] was 23.3 µM (active). Regarding `CCC(C)NC(=O)c1nc(O)c2nnn(Cc3ccccc3Cl)c2n1` (stereo not drawn), the EC50 in [2] is > 260 µM (inactive). Regarding `O=C(CC1Sc2ccccc2NC1=O)NNc1cc(Cl)ccc1Cl` (stereo not drawn), the IC50 in [1] is > 100 µM (inactive). As for `Brc1ccc2oc(-c3cc[nH]n3)cc2c1`, the EC50 is 93.8 µM (active) in [5] and 0.281 µM (active) in assay [6]. The IC50 in [1] was 80 µM (inactive).

In the case of `Cc1ccc(S(=O)(=O)N2CCOCC2)cc1C(=O)NC1CCN(Cc2ccccc2)CC1`, the EC50 in [3] is > 53 µM (inactive). Further, the IC50 in [4] was > 47.1 µM (inactive). With `Cc1nc2nc(C)c(CCC(=O)N3CCN(c4ccccc4)CC3)c(C)n2n1`, in assay [1], the IC50 was > 100 µM (inactive). With `O=C(Nc1nc(-c2ccc(Cl)s2)cs1)c1ccco1`, the IC50 in assay [1] was 13.7 µM (active). For the compound `O=S(=O)(Cc1cc(Sc2ccccc2)nc(-c2ccccc2)n1)c1ccccc1`, the IC50 in assay [1] was > 100 µM (inactive). As to `N#CCCn1cc(C=C(C#N)C#N)c(-c2ccc(-c3ccccc3)cc2)n1`, the EC50 in assay [2] is 7.51 µM (active). Turning to `O=[N+]([O-])c1ccc(Nc2ccc(Cl)cc2)nc1`, the IC50 in assay [1] is > 100 µM (inactive). In the case of `CCCCCCC1CCC(C(=O)NC(CCSC)C(=O)NC(C(=O)OC)C(C)C)CC1` (stereo not drawn), the EC50 in assay [2] was > 260 µM (inactive). Turning to `CN(C)c1ccc(NC(=O)CN2CCN(c3ccc(F)cc3)CC2)cc1`, in assay [7], the IC50 is 5.83 µM (active). `Cc1ccn2cc(CSc3ccccc3N)nc2c1`: the EC50 in [3] is > 53 µM (inactive). For the same compound, the IC50 in assay [4] is > 47.1 µM (inactive). As for `COC(=O)c1ccc(C#Cc2ccccc2)o1`, the IC50 in assay [1] was > 100 µM (inactive). With `Cc1cc(C)nc(SCc2cc(=O)c(OC(=O)c3ccc(S(=O)(=O)N4CCCC4)cc3)co2)n1`, the IC50 in [7] is 37.3 µM (active). For `CCOC(=O)c1c(C)c(C(=O)Nc2ccc(N(C)C)cc2)c(C)n1CC`, the IC50 in assay [7] was 15.1 µM (active). Take `O=C(CNC(=O)C1CCCCC1)Nc1ccc(F)c(Cl)c1`: the EC50 in assay [3] was > 53 µM (inactive). Moreover, the IC50 in assay [4] was > 47.1 µM (inactive). Take `CCCCc1ccc(NS(=O)(=O)c2c(C)n(C)c(=O)n(C)c2=O)cc1`: in assay [2], the EC50 is > 260 µM (inactive). Turning to `COc1cccc(-n2c(=O)c3ccccc3n3c(S)nnc23)c1`, in [7], the IC50 was 19.1 µM (active). With `Sc1nc(-c2ccc(Br)cc2)cn1CCc1ccccc1`, the EC50 in assay [2] is > 260 µM (inactive). With `O=C(Nc1ccccc1Oc1cccnc1)C1CCCN(Cc2ccccc2O)C1` (stereo not drawn), the EC50 in assay [3] was > 53 µM (inactive). In addition, in assay [4], the IC50 is > 47.1 µM (inactive). With `Cc1ccc(O)c(NC(=O)Cc2ccc3ccccc3c2)c1`, the EC50 in assay [2] is 7.7 µM (active). As for `CCOC(=O)c1c(C)n[nH]c1NCc1ccccc1`, the EC50 in assay [8] is > 120 µM (not active); in assay [9] it was 26 µM (active); in assay [10] it was > 120 µM (not active). Regarding `O=C(Nc1ccc(O)cc1)/C(=C/c1ccco1)NC(=O)c1ccccc1`, the IC50 in [7] was 11 µM (active). `Cc1nc2c(c(N3CCOCC3)n1)OCC(=O)N2`: the EC50 in assay [8] was 20.7 µM (active); in assay [9], 42.6 µM (active); in assay [10] it was > 120 µM (not active). In the case of `Cc1cc(C)c(OCCN(C)Cc2ccccc2)c(Br)c1`, the EC50 is > 60 µM (not active) in [11], > 53 µM (inactive) in assay [3] and 1.68 µM (active) in assay [12]. Besides, in assay [4], the IC50 is > 47.1 µM (inactive). For the compound `COc1cc(CC(=O)N(c2ccccc2)c2nc(C)cs2)cc(OC)c1OC`, the EC50 in [2] was > 260 µM (inactive). Regarding `CCOc1ccc(-c2nc(N)ncc2Oc2cccc(OC)c2)c(O)c1`, the EC50 was > 60 µM (not active) in assay [8], > 120 µM (not active) in assay [9], > 53 µM (inactive) in assay [3] and 16.4 µM (active) in [10]. In addition, the IC50 in assay [1] is > 100 µM (inactive); in assay [4], > 47.1 µM (inactive).

`CN1CCN(C(=O)c2ccccc2N(Cc2ccccc2)S(C)(=O)=O)CC1`: in assay [1], the IC50 is > 100 µM (inactive). As for `COc1ccc(/C=N/NC(=O)c2ccccc2NC(=O)c2ccco2)c(OC)c1`, the EC50 in assay [3] was > 53 µM (inactive). The IC50 in [4] is > 47.1 µM (inactive). In the case of `CN(C)S(=O)(=O)c1ccc(Cl)c(-c2nnc3n2CCCCC3)c1`, the EC50 in assay [8], in assay [9] and in assay [10] was > 120 µM (not active) throughout.
